Data reported in PMC9739695, “Water-Soluble Salts Based on Benzofuroxan Derivatives—Synthesis and Biological Activity” (International Journal of Molecular Sciences, 2022).
Like-named read-outs stand apart in the source and are kept apart here.

Legend:
[1] = system: alfalfa seeds; assay: Pre-sowing seed treatment, sowing qualities of alfalfa seeds; assay type: in vivo; conditions: control 76
Experimental: (§1) When evaluating the effectiveness of treatment of wheat, alfalfa, barley, rice, and sorghum seeds as fungicidal and bactericidal agents with preparation compounds at concentrations of 10, 20, and 40 mmol, their effect on the suppression of seed infection was evaluated.
(§2) […] The sowing qualities were evaluated (germination energy for 3–4 days, laboratory germination for 7–8 days) according to GOST 12038-84 [60]. Sowing qualities of seeds were determined in wet chambers. According to the sample, 50 seeds were taken in 4-fold repetition.

[2] = system: wheat seeds; assay: Pre-sowing seed treatment, sowing qualities of wheat seeds; assay type: in vivo; conditions: for germination energy: control 82; for laboratory germination: control 85.7
Experimental: as §1, §2

[3] = system: SH-SY5Y (neuroblastoma); assay: Cell viability, MTT test; assay type: cell-based, Human; conditions: Homo sapiens, SH-SY5Y, test range 0.1 to 100 μM, read-out: IC50 (concentration causing 50% inhibition of cell population growth)
Experimental: (§3) In this work, the cytotoxic potential of the water-soluble salts based on benzofuroxan was determined by the effect of compounds on the survival of the cell tumor origin cultures (SH-SY5Y, Hep2, A549, HeLa) using the MTT test. To understand how the synthesized compounds can influence the healthy microenvironment in the body, the effect of substances on the viability of a normal Hek 293 cell culture was additionally evaluated.
(§4) Human cell cultures of tumor origin—SH-SY5Y (neuroblastoma), HeLa (cervical tumor), Hep-2 (larynx carcinoma), A549 (adenocarcinomic human alveolar basal epithelial cells)—and normal cell line Hek 293 (human embryonic kidneys), provided by the Laboratory of Tumor Cell Genetics of the Scientific Research Institute of Carcinogenesis, N.N. Blokhin National Medical Research Center of Oncology, as well as the Institute of Cytology of the Russian Academy of Sciences, were grown in a nutrient medium DMEM (PanEco, Moscow, Russia) and MEM (PanEco, Moscow, Russia), containing fetal bovine serum (10% by volume) (ThermoFisher Scientific, Paisley, UK), Glutamax (2 mM) (Gibco, Scotland, UK), and penicillin-streptomycin (1% by volume) (PanEco, Moscow, Russia). The cultivation was carried out at 37 °C in a humidified CO2 atmosphere (5%).
(§5) Cell viability was determined by MTT test. Cells were seeded in a 96-well plate in the amount of 1 × 10^4 cells/200µLof complete nutrient medium and cultured at 37 °C in CO2 (5%). After 24 h of incubation, various concentrations of test compounds in the range from 0.1 to 100 μM, were added to the cell cultures, and then the cells were cultured under the same conditions for 24 and 72 h. For each concentration, the experiment was carried out in triplicate.
(§6) All compounds were dissolved in DMSO, then diluted with the medium to the required concentration. […] The DMSO was also added to the control wells in a volume of 1%. After the incubation time, MTT (3-(4,5-dimethylthiazol-2-yl)-2,5-diphenyltetrazolium bromide, 5 mg/mL) was added to each well and plates were additionally incubated for 2 h (until the characteristic color appeared).
(§7) Using a plate analyzer (Cytation3, BioTech Instruments Inc., Winooski, VT, USA), the optical density was determined at 530 nm. The concentration value causing 50% inhibition of cell population growth (IC50) was determined from dose-dependent curves.

[4] = system: bacterial microflora on barley seeds; assay: Growth of bacterial microflora on treated barley seeds; assay type: cell-based
Experimental: (§8) During phytopathological analyses of agricultural crops, the species composition of fungal and bacterial microflora was established. Laboratory studies were carried out on two nutrient media potato-agar (ingredients: potatoes—200 g; agar-agar—20 g; distilled water—1000 mL.) and potato-dextrose agar (ingredients: potatoes—200 g;dextrose—20 g; agar-agar—20 g; distilled water—1000 mL), according to the guidelines.
as §1

[5] = system: HeLa (cervical tumor); assay: Cell viability, MTT test; assay type: cell-based; conditions: Homo sapiens, test range 0.1 to 100 μM, read-out: IC50 (concentration causing 50% inhibition of cell population growth)
Experimental: as §3, §4, §5, §6, §7

[6] = system: Hep-2 (larynx carcinoma); assay: Cell viability, MTT test; assay type: cell-based; conditions: Homo sapiens, HEp-2, test range 0.1 to 100 μM, read-out: IC50 (concentration causing 50% inhibition of cell population growth)
Experimental: as §3, §4, §5, §6, §7

[7] = system: A549 (adenocarcinomic human alveolar basal epithelial cells); assay: Cell viability, MTT test; assay type: cell-based; conditions: test range 0.1 to 100 μM, read-out: IC50 (concentration causing 50% inhibition of cell population growth)
Experimental: as §3, §4, §5, §6, §7

[8] = system: sorghum seeds; assay: Pre-sowing seed treatment, sowing qualities of sorghum seeds; assay type: in vivo; conditions: for germination energy: control 52.3; for laboratory germination: control 57
Experimental: as §1, §2

[9] = system: fungal microflora (mushrooms) on alfalfa seeds; assay: Growth of fungal microflora on treated alfalfa seeds; assay type: cell-based
Experimental: as §8
When evaluating the effectiveness of treatment of wheat, alfalfa, barley, rice, and sorghum seeds as […], their effect on the suppression of seed infection was evaluated.

[10] = system: rice seeds; assay: Pre-sowing seed treatment, sowing qualities of rice seeds; assay type: in vivo; conditions: for germination energy: control 71.4; for laboratory germination: control 95.2
Experimental: as §1, §2

[11] = system: Hek 293 (human embryonic kidneys); assay: Cell viability, MTT test, normal cell line; assay type: cell-based; conditions: HEK293, Hek 293 normal cells, test range 0.1 to 100 μM, read-out: IC50 (concentration causing 50% inhibition of cell population growth)
Experimental: as §3, §4, §5, §6, §7

[12] = system: bacterial microflora on rice seeds; assay: Growth of bacterial microflora on treated rice seeds; assay type: cell-based
Experimental: as §8, §1

[13] = system: barley seeds; assay: Pre-sowing seed treatment, sowing qualities of barley seeds; assay type: in vivo; conditions: control 95.2
Experimental: as §1, §2

In the case of `O=[N+]([O-])c1c(Cl)cc2c(no[n+]2[O-])c1NCCN1CCOCC1` [4d, 6-chloro-4-(2-(morpholino-4-ium)ethylamino)-5-nitrobenzo[c][1,2,5]oxadiazole 1-oxide chloride], the germination energy ([1]; 10 mmol) is reported as 43.3%, the laboratory germination ([1]; 10 mmol) is reported as 50% and the germination energy ([1]; 20 mmol) is reported as 63.3%. For the same compound, the laboratory germination ([1]; 20 mmol) was 73.3%, the germination energy ([1]; 40 mmol) was 78% and the laboratory germination ([1]; 40 mmol) was 80.5%. For the same compound, the germination energy ([2]; 10 mmol) was 47.6%, the laboratory germination ([2]; 10 mmol) was 47.6% and the germination energy ([2]; 20 mmol) was 71.4%. The laboratory germination ([2]; 20 mmol) was 71.4%, the “sowing qualities of seeds compared with control” value ([2]; 40 mmol) was “higher than in the case of controls” and the germination energy ([2]; 40 mmol) was 98%. It also gave a laboratory germination ([2]; 40 mmol) of 98.5%, an IC50 ([3]; incubation 24 h) of 24.3 ± 1.91 µM and an IC50 ([3]; incubation 72 h) of 22.8 ± 1.9 µM. The “effect on bacterial microflora” value ([4]; 10 mmol) was “slight suppression of the bacterial microflora”, the “effect on bacterial microflora” value ([4]; 40 mmol) was “slight suppression of the bacterial microflora” and the IC50 ([5]; incubation 24 h) was 40.5 ± 1.9 µM. It also gave an IC50 ([5]; incubation 72 h) of 35.47 ± 0.12 µM, an IC50 ([6]; Hep2, incubation 24 h) of 91.3 ± 1.4 µM and an IC50 ([6]; Hep2, incubation 72 h) of 89.9 ± 3.12 µM. It also gave an IC50 ([7]; A549, incubation 24 h) of over 100 µM, an IC50 ([7]; A549, incubation 72 h) of 98.21 ± 0.1 µM and a germination energy ([8]; 10 mmol) of 33.3%. The laboratory germination ([8]; 10 mmol) was 40%, the “sowing qualities of seeds compared with control” value ([8]; 20 mmol) was “higher than in the control” and the germination energy ([8]; 20 mmol) was 76.1%. The laboratory germination ([8]; 20 mmol) was 80.9%, the germination energy ([8]; 40 mmol) was 58.5% and the laboratory germination ([8]; 40 mmol) was 61.5%. For the same compound, the “effect on fungal microflora” value ([9]; 10 mmol) was “positive effect on the suppression of fungal microflora”, the “effect on fungal microflora” value ([9]; 20 mmol) was “positive effect on the suppression of fungal microflora” and the germination energy ([10]; 10 mmol) was 52.3%. The laboratory germination ([10]; 10 mmol) was 52.3%, the germination energy ([10]; 20 mmol) was 47.6% and the laboratory germination ([10]; 20 mmol) was 95.2%. The “sowing qualities of seeds compared with control” value ([10]; 40 mmol) was “better results than the control”, the germination energy ([10]; 40 mmol) was 99% and the laboratory germination ([10]; 40 mmol) was 99%. The IC50 ([11]; incubation 24 h) was 40.8 ± 2.84 µM, the IC50 ([11]; incubation 72 h) was 28.1 ± 0.93 µM and the “effect on bacterial microflora” value ([12]; 10 mmol) was “positive effect on the suppression of bacterial microflora”. For the same compound, the “effect on bacterial microflora” value ([12]; 20 mmol) was “positive effect on the suppression of bacterial microflora”, the germination energy ([13]; 10 mmol) was 71.4% and the laboratory germination ([13]; 10 mmol) was 71.4%. It also gave a germination energy ([13]; 20 mmol) of 66.6%, a laboratory germination ([13]; 20 mmol) of 66.6% and a germination energy ([13]; 40 mmol) of 95%. For the same compound, the laboratory germination ([13]; 40 mmol) was 98.5%.
